Experiments:
Assay in all cases: 10-day proliferation (CTG), SPLAM titration + 1000 nM Compound A, Bliss (Example 5; Tables 12-19)
Assay type in all cases: cell-based
UMUC5 = system: UMUC5; parameters: key: GDI scale -100 to 100; 0 = cell number at T0; <0 cytotoxic; settings: for GDI (growth death index), single agent Cmpd A: UMUC5, 1000 nM Compound A
Description: Synergy was measured across the Indisulam titration with 1000 nM Compound A by Bliss Independence analysis. Bliss scores >10 are indicated by “*” and are considered synergistic. […] Synergy as reported using Bliss may be underrepresented within cytotoxic dose ranges. Growth death index values are shown for the combination titration and each single agent Compound A (Cmpd A) and Indisulam on a scale of −100 to 100 with the midpoint (0) being the number of cells at the beginning of the combination (T0). Scores less than 0 are indicated with “**” and are representative of a cytotoxic response. Bliss and GDI values are shown for five MTAP-deficient cell lines: NCI-1H838 (12A), SW900 (12B), RT112/84 (12C), UMUC5 (121D), and UMUC11 (12E).
(§1) A 10-day proliferation assay was performed in a panel of 5 MTAP-deficient and 2 wild type non-small cell lung and bladder cancer cell lines. Optimal cell seeding for all cell lines was determined by assessing the growth over a range of seeding densities in a 384-well format to identify conditions that permitted proliferation for 10 days. Cells were then plated at the optimal seeding density and treated with 20-point, two-fold dilution series of each of four structurally different SPLAMs in combination with a 1000 nM fixed concentration of Compound A. Single agent titrations for Compound A and each SPLAM were included for comparison. Concentrations tested for each SPLAM alone or in combination ranged from 0.04 nM to 20,000 nM. A plate of cells was harvested at the time of compound addition to quantify the number of cells at the start of the combination (T0). For cell quantification, the harvested cells were lysed with Promega CellTiter-Glo (CTG) reagent according to the manufacturer's protocol and the chemiluminescent signal was detected as described in Example 1 above. Cells were incubated with the drug combinations at 37° C. with 5% CO2 for 10 days. Cells were then lysed with CTG and the chemiluminescent signal was measured.
(§2) CTG values obtained after the 10-day treatment were background subtracted and expressed as a percent of the T0 value set at 100%. Data were plotted against compound concentration and fit with a four-parameter equation to generate single agent dose response curves. Percent inhibition was determined for each combination and single agent concentration compared to a DMSO control. In addition, the overall net growth or death of the cells was calculated and reported as a growth death index (GDI) value on a scale of −100 to 100 with the midpoint (0) being the number of cells at the beginning of the combination (T0).
(§3) Predicted inhibition was calculated using (Ea+Eb)−(Ea*Eb) where E equals the effect (inhibition) of each single agent (a and b). A difference between the observed inhibition percentage and the predicted inhibition percentage greater than 10% was considered synergistic. A Bliss score was only reported for combinations eliciting >20% growth inhibition (GDI value <80). Since Bliss is calculated based on growth inhibition, scores within cytotoxic dose ranges may not accurately reflect synergistic cytoxicity.
Synergy was measured across the E7820 titration with 1000 nM Compound A by Bliss Independence analysis. Bliss scores >10 are indicated by “*” and are considered synergistic. […] Synergy as reported using Bliss may be underrepresented within cytotoxic dose ranges. Growth death index values are shown for the combination titration and each single agent Compound A (Cmpd A) and Indisulam on a scale of −100 to 100 with the midpoint (0) being the number of cells at the beginning of the combination (T0). Scores less than 0 are indicated by “**” and are representative of a cytotoxic response. Bliss and GDI values are shown for five MTAP-deficient cell lines: NCI-1H838 (14A), SW900 (14B), RT112/84 (14C), UMUC5 (141)), and UMUC11 (14E).
Synergy was measured across the Chloroquinoxaline Sulfonamide titration with 1000 nM Compound A by Bliss Independence analysis.

NCI-H520 = system: NCI-H520; parameters: key: −100 to 100; 0 = cell number at T0, <0 = cytotoxic; settings: for GDI (growth death index), single agent Cmpd A: NCI-H520, 1000 nM Compound A
Description: as §1, §2, §3
(§4) Synergy was measured across the Indisulam titration with 1000 nM Compound A by Bliss Independence analysis. Bliss scores >10 are indicated by “*” and are considered synergistic. […] Synergy as reported using Bliss may be underrepresented within cytotoxic dose ranges. Growth death index values are shown for the combination titration and each single agent Compound A (Cmpd A) and Indisulam on a scale of −100 to 100 with the midpoint (0) being the number of cells at the beginning of the combination (T0). Scores less than 0 are highlighted black and are representative of a cytotoxic response. Bliss and GDI values are shown for five MTAP-deficient cell lines: NCI-H520 (13A), TCCSUP (13B).
(§5) Synergy was measured across the E7820 titration with 1000 nM Compound A by Bliss Independence analysis. Bliss scores >10 are indicated by “*” and are considered synergistic. […] Synergy as reported using Bliss may be underrepresented within cytotoxic dose ranges. Growth death index values are shown for the combination titration and each single agent Compound A (Cmpd A) and Indisulam on a scale of −100 to 100 with the midpoint (0) being the number of cells at the beginning of the combination (T0). Scores less than 0 are indicated by “**” and are representative of a cytotoxic response. Bliss and GDI values are shown for five MTAP-deficient cell lines: NCI-H520 (15A), TCCSUP (15B).
(§6) Synergy was measured across the Chloroquinoxaline Sulfonamide titration with 1000 nM Compound A by Bliss Independence analysis. Bliss scores >10 are indicated by and are considered synergistic.

TCCSUP = system: TCCSUP; parameters: key: −100 to 100; 0 = cell number at T0, <0 = cytotoxic; settings: for GDI (growth death index), single agent Cmpd A: TCCSUP, 1000 nM Compound A
Description: as §1, §2, §3, §4, §5, §6

[1] = SPLAM 0.04 nM, alone or + 1 uM Cmpd A
[2] = SPLAM 0.1 nM, alone or + 1 uM Cmpd A
[3] = SPLAM 0.2 nM, alone or + 1 uM Cmpd A
[4] = SPLAM 0.3 nM, alone or + 1 uM Cmpd A
[5] = SPLAM 0.6 nM, alone or + 1 uM Cmpd A
[6] = SPLAM 1.2 nM, alone or + 1 uM Cmpd A
[7] = SPLAM 2.4 nM, alone or + 1 uM Cmpd A
[8] = SPLAM 4.9 nM, alone or + 1 uM Cmpd A
[9] = SPLAM 9.8 nM, alone or + 1 uM Cmpd A
[10] = SPLAM 19.5 nM, alone or + 1 uM Cmpd A
[11] = SPLAM 39.1 nM, alone or + 1 uM Cmpd A
[12] = SPLAM 78.1 nM, alone or + 1 uM Cmpd A
[13] = SPLAM 156.3 nM, alone or + 1 uM Cmpd A
[14] = SPLAM 312.5 nM, alone or + 1 uM Cmpd A
[15] = SPLAM 625 nM, alone or + 1 uM Cmpd A
[16] = SPLAM 1250 nM, alone or + 1 uM Cmpd A
[17] = SPLAM 2500 nM, alone or + 1 uM Cmpd A
[18] = SPLAM 5000 nM, alone or + 1 uM Cmpd A
[19] = SPLAM 10000 nM, alone or + 1 uM Cmpd A
[20] = SPLAM 20000 nM, alone or + 1 uM Cmpd A

Compound: Cc1ccc(NS(=O)(=O)c2cccc(C#N)c2)c2[nH]cc(C#N)c12 [Compound E7820, 3-cyano-N-(3-cyano-4-methyl-1H-indol-7-yl)benzenesulfonamide]
- GDI (UMUC5; [1]): 100
- GDI (UMUC5; [2]): 100
- GDI (UMUC5; [3]): 100
- GDI (UMUC5; [4]): 100
- GDI (UMUC5; [5]): 100
- GDI (UMUC5; [6]): 100
- GDI (UMUC5; [7]): 100
- GDI (UMUC5; [8]): 100
- GDI (UMUC5; [9]): 100
- GDI (UMUC5; [10]): 100
- GDI (UMUC5; [11]): 100
- GDI (UMUC5; [12]): 100
- GDI (UMUC5; [13]): 99
- GDI (UMUC5; [14]): 73
- GDI (UMUC5; [15]): 31
- GDI (UMUC5; [16]): 15
- GDI (UMUC5; [17]): 15
- GDI (UMUC5; [18]): 7
- GDI (UMUC5; [19]): 6
- GDI (UMUC5; [20]): 3
- GDI (NCI-H520; [1]): 100
- GDI (NCI-H520; [2]): 100
- GDI (NCI-H520; [3]): 100
- GDI (NCI-H520; [4]): 100
- GDI (NCI-H520; [5]): 100
- GDI (NCI-H520; [6]): 100
- GDI (NCI-H520; [7]): 100
- GDI (NCI-H520; [8]): 100
- GDI (NCI-H520; [9]): 100
- GDI (NCI-H520; [10]): 100
- GDI (NCI-H520; [11]): 100
- GDI (NCI-H520; [12]): 100
- GDI (NCI-H520; [13]): 100
- GDI (NCI-H520; [14]): 82
- GDI (NCI-H520; [15]): 54
- GDI (NCI-H520; [16]): 32
- GDI (NCI-H520; [17]): 21
- GDI (NCI-H520; [18]): 11
- GDI (NCI-H520; [19]): 8
- GDI (NCI-H520; [20]): 5
- GDI (TCCSUP; [1]): 100
- GDI (TCCSUP; [2]): 100
- GDI (TCCSUP; [3]): 100
- GDI (TCCSUP; [4]): 100
- GDI (TCCSUP; [5]): 100
- GDI (TCCSUP; [6]): 100
- GDI (TCCSUP; [7]): 100
- GDI (TCCSUP; [8]): 100
- GDI (TCCSUP; [9]): 100
- GDI (TCCSUP; [10]): 100
- GDI (TCCSUP; [11]): 100
- GDI (TCCSUP; [12]): 100
- GDI (TCCSUP; [13]): 100
- GDI (TCCSUP; [14]): 100
- GDI (TCCSUP; [15]): 100
- GDI (TCCSUP; [16]): 100
- GDI (TCCSUP; [17]): 100
- GDI (TCCSUP; [18]): 92
- GDI (TCCSUP; [19]): 91
- GDI (TCCSUP; [20]): 78

Compound: NS(=O)(=O)c1ccc(S(=O)(=O)Nc2cccc3c(Cl)c[nH]c23)cc1 [Indisulam, N-(3-chloro-1H-indol-7-yl)benzene-1,4-disulfonamide]
- GDI (UMUC5; [1]): 100
- GDI (UMUC5; [2]): 100
- GDI (UMUC5; [3]): 100
- GDI (UMUC5; [4]): 100
- GDI (UMUC5; [5]): 100
- GDI (UMUC5; [6]): 98
- GDI (UMUC5; [7]): 100
- GDI (UMUC5; [8]): 100
- GDI (UMUC5; [9]): 100
- GDI (UMUC5; [10]): 100
- GDI (UMUC5; [11]): 100
- GDI (UMUC5; [12]): 100
- GDI (UMUC5; [13]): 94
- GDI (UMUC5; [14]): 69
- GDI (UMUC5; [15]): 26
- GDI (UMUC5; [16]): 5
- GDI (UMUC5; [17]): 3
- GDI (UMUC5; [18]): 3
- GDI (UMUC5; [19]): 2
- GDI (UMUC5; [20]): 2
- GDI (NCI-H520; [1]): 95
- GDI (NCI-H520; [2]): 100
- GDI (NCI-H520; [3]): 100
- GDI (NCI-H520; [4]): 100
- GDI (NCI-H520; [5]): 100
- GDI (NCI-H520; [6]): 100
- GDI (NCI-H520; [7]): 100
- GDI (NCI-H520; [8]): 100
- GDI (NCI-H520; [9]): 100
- GDI (NCI-H520; [10]): 100
- GDI (NCI-H520; [11]): 100
- GDI (NCI-H520; [12]): 100
- GDI (NCI-H520; [13]): 100
- GDI (NCI-H520; [14]): 97
- GDI (NCI-H520; [15]): 45
- GDI (NCI-H520; [16]): 25
- GDI (NCI-H520; [17]): 12
- GDI (NCI-H520; [18]): 6
- GDI (NCI-H520; [19]): 6
- GDI (NCI-H520; [20]): 2
- GDI (TCCSUP; [1]): 100
- GDI (TCCSUP; [2]): 100
- GDI (TCCSUP; [3]): 100
- GDI (TCCSUP; [4]): 100
- GDI (TCCSUP; [5]): 100
- GDI (TCCSUP; [6]): 100
- GDI (TCCSUP; [7]): 100
- GDI (TCCSUP; [8]): 100
- GDI (TCCSUP; [9]): 100
- GDI (TCCSUP; [10]): 100
- GDI (TCCSUP; [11]): 100
- GDI (TCCSUP; [12]): 100
- GDI (TCCSUP; [13]): 100
- GDI (TCCSUP; [14]): 100
- GDI (TCCSUP; [15]): 100
- GDI (TCCSUP; [16]): 100
- GDI (TCCSUP; [17]): 100
- GDI (TCCSUP; [18]): 100
- GDI (TCCSUP; [19]): 86
- GDI (TCCSUP; [20]): 70

Compound: Nc1nc(=O)n(-c2ccccc2Cl)c2nc(C(F)(F)F)ccc12 [Compound A]
- GDI (growth death index), single agent Cmpd A (UMUC5; Table 16D): 58
- GDI (growth death index), single agent Cmpd A (UMUC5; Table 18D): 58
- GDI (UMUC5; single agent Cmpd A, 1000 nM): 58
- GDI (growth death index), single agent Cmpd A (NCI-H520; Table 17A): 100
- GDI (growth death index), single agent Cmpd A (NCI-H520; Table 19A): 100
- GDI (NCI-H520; single agent Cmpd A, 1000 nM): 100
- GDI (growth death index), single agent Cmpd A (TCCSUP; Table 17B): 84
- GDI (growth death index), single agent Cmpd A (TCCSUP; Table 19B): 84
- GDI (TCCSUP; single agent Cmpd A, 1000 nM): 84

Reference: patent publication US20260294915A1, “COMBINATION THERAPY COMPRISING A MAT2A INHIBITOR AND A TOPOISOMERASE INHIBITOR, A SPLICING INHIBITOR SULFONAMIDE, OR A KIF18 INHIBITOR” (IDEAYA BIOSCIENCES, INC., priority 2023, published 2026)
